Experimental data reported in US9732070B2, “Protein kinase C inhibitors and uses thereof” (Rigel Pharmaceuticals, Inc., priority 2009, dated 2017).

Test system: Human primary T cells
Assay: IL-2 ELISA, human primary T cell, anti-CD3+CD28 stimulation
Type: cell-based
Details: T-cell; IL-2 quantified by ELISA; human primary T cells stimulated with αCD3 and αCD28, 24 hours
Summary of the method: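 PBMC-derived T cells expanded on αCD3/αCD28 with IL-2, then washed free of IL-2. Cells (100,000/well) pre-incubated with compound 1 h at 37° C, stimulated on plates coated with 1 μg/ml αCD3 and 5 μg/ml αCD28 (counter assay: 0.5 ng/ml PMA plus 0.1 uM ionomycin) for 24 h; supernatant IL-2 by ELISA.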

IC50 [nM]	Compound
3000 to 25000	CN1C(C)(C)CC(Nc2nc(Nc3ccc(F)c(-n4nnn(C)c4=O)c3F)ncc2F)CC1(C)C [I-66, N2-(2,4-difluoro-3-(4-methyl-4,5-dihydro-5-oxo-1H-tetrazol-1-yl)phenyl)-5-fluoro-N4-(1,2,2,6,6-pentamethylpiperidin-4-yl)pyrimidine-2,4-diamine]
< 500	Cn1nnn(-c2cc(Nc3ncc(F)c(NC4CC(C)(C)NC(C)(C)C4)n3)c(F)cc2Cl)c1=O [I-68]
